The results in this text go back to patent US6048892A, “Ester compound pesticide containing thereof” (Sumitomo Chemical Company, Limited, priority 1999, dated 2000).

In data set [1] the test system is brown planthopper (Nilaparvata lugens). Briefly: Biological Test 2: mortality of larvae on dipped rice plant stalk. The conditions noted are these: 144 h, read-out: mortality of the larvae. Format: in vivo. As for the experimental part: A stalk of a rice plant was dipped for one minute in a 500 ppm aqueous emulsion obtained by diluting each emulsifiable concentrate of the present compounds prepared according to the formulation example 1. The rice plant stalk was air-dried and placed in a polyethylene cup (diameter: 5.5 cm) where filter paper (diameter: 5.5 cm) impregnated with 1 ml of water was put. Approximately 30 larvae of brown planthopper (Nilaparvata lugens) were put in the polyethylene cup. After 6 days, the mortality of the larvae was examined.

Data set [2] deals with southern corn rootworm (Diabrotica undecimpunctata howardi). Briefly: Biological Test 3: mortality of hatched larvae and eggs. Format: in vivo. The conditions noted are these: 192 h, read-out: mortality of the hatched larvae and eggs. The text has this: Filter paper of 5.5 cm in diameter was laid in the bottom of a polyethylene cup (diameter: 5.5 cm). […] After 8 days, the mortality of the hatched larvae and eggs was examined.

The test system of data set [3] is houseflies (Musca domestica). Briefly: Biological Test 4: mortality of female houseflies low sensitive to pyrethroids, treated filter paper. It is filed as in vivo. To be noted: 24 h. As for the experimental part: Filter paper of 5.5 cm in diameter was laid in the bottom of a polyethylene cup (diameter: 5.5 cm). After 0.7 ml of a 500 ppm aqueous emulsion obtained by diluting each emulsifiable concentrate prepared according to the formulation example 1 was dropped on the filter paper and approximately 30 mg of sucrose as bait was uniformly scattered. Ten female houseflies (Musca domestica), which were low sensitive to pyrethroids, were left in the cup with a cover. After one day, the mortality was examined.

For data set [4], the system named is German cockroaches (Blattella germanica). Description: Biological Test 5: mortality of male German cockroaches low sensitive to pyrethroids, treated filter paper. It is filed as in vivo. To be noted: 144 h. The protocol: Filter paper of 5.5 cm in diameter was laid in the bottom of a polyethylene cup (diameter: 5.5 cm). After 0.7 ml of a 500 ppm aqueous emulsion obtained by diluting each emulsifiable concentrate prepared according to the formulation example 1 was dropped on the filter paper and approximately 30 mg of sucrose as bait was uniformly scattered. Two male German cockroaches (Blattella germanica), which were low sensitive to pyrethroids, were left in the cup with a cover. After six days, the mortality was examined.

In data set [5] the test system is common mosquitoes (Culex pipiens pallens). Briefly: Biological Test 6: mortality of last-instar mosquito larvae in water. It is filed as in vivo. The conditions noted are these: 24 h, read-out: mortality of the common mosquitoes. The protocol:
0.7 ml of aqueous emulsion, obtained by diluting emulsifiable concentrate prepared for each of the present compounds according to the formulation example 1, was added to 100 ml of ion-exchanged water (concentration of active ingredient: 3.5 ppm). Twenty last-instar larvae of common mosquitoes (Culex pipiens pallens) were left in the water. After one day, the mortality of the common mosquitoes was examined.

The test system is the same in data set [6]. Description: Biological Test 7: knock-down of mosquitoes by sprayed oil solution. To be noted: 0.7 ml of 0.1% oil solution sprayed in 0.34 m^3 chamber; after 15 minutes. It is filed as in vivo. As for the experimental part: Ten female common mosquitoes (Culex pipiens pallens) were left in a glass chamber (70 cm×70 cm×70 cm: 0.34 m^3). 0.7 ml of 0.1% oil solution prepared for each of the present compounds according to the formulation example 7 was sprayed with a spray gun at 0.8 atmospheric pressure. After 15 minutes, the rate of knocked-down mosquitoes was examined.

For data set [7] the test system is unchanged. Briefly: Biological Test 8: knock-down of mosquitoes by mosquito-coil. It is filed as in vivo. The conditions noted are these: 1.0 g of 0.3% mosquito-coil in 0.34 m^3 chamber; after 15 minutes. The protocol:
Mosquito-coil containing the present compound in an amount of 0.3% was prepared according to the formulation example 10 for the present compounds. Ten female common mosquitoes (Culex pipiens pallens) were left in a glass chamber (70 cm×70 cm×70 cm: 0.34 m^3) and 1.0 g of 0.3% mosquito-coil having both ends lit was placed in the glass chamber. After 15 minutes, the rate of knocked-down mosquitoes was examined.

Data set [8] shares this test system. Description: Biological Test 11: mosquitoes in cup over treated aluminum plate without direct contact, mortality. It is filed as in vivo. To be noted: 24 h. As for the experimental part:
After 0.64 ml of a 0.05 (w/v) % acetone solution of the present compounds was dropped into an aluminum plate (bottom diameter: 7 cm), acetone was air-dried. Ten female common mosquitoes (Culex pipiens pallens) were left in a polyethylene cup (diameter: 9 cm; depth: 4.5 cm) and the cup was sealed with a 16-mesh nylon net to prevent direct contact of the mosquitoes with the compound. The cup was placed upside down on the aluminum plate at 25° C. for 120 minutes. The cup was then removed from the aluminum plate, and water and feed were given to the mosquitoes. After 24 hours, the mortality was examined (two replicate).

For data set [9], the system named is webbing clothes moth (Tineola bisselliella). Description: Biological Test 13: volatile agent in cup, mortality and fabric damage. It is filed as in vivo. The conditions noted are these: volatile agent (100 μg on filter paper), 950 cm^3 cup, 25° C., 1 week. As for the experimental part: A wool muslin fabric (2 cm×2 cm in size) was placed on the bottom of a polyethylene cup (bottom diameter: 10 cm, opening part diameter: 12.5 cm, height: 9.5 cm, volume: 950 cm^3). Ten middle instar larvae of webbing clothes moth (Tineola bisselliella) were put in the cup and each of the volatile agents prepared according to the formulation example 14 was hung from the cap in the interior of the cup. After standing at 25° C. for 1 week, the cup was opened, and the mortality and the degree of damage of the wool muslin fabric by the moths were examined (two replicate).

For data set [10] the test system is unchanged. Briefly: Biological Test 14: treated filter paper in cardboard box, percent moribund, fabric damage and persistence. It is filed as in vivo. To be noted: 36 mg on filter paper. The protocol:
A filter paper (3.2 cm×3.2 cm in size) treated with 36 mg of each of the present compounds and two wool muslin fabrics (25 cm×25 cm in size) were hung down at the upper part of a corrugated cardboard box (29 cm×29 cm×29 cm in size). After standing at 25° C. and a humidity of 60% for 1 week, two tea-strainer balls holding 7 to 10 middle instar larvae of webbing clothes moth (Tineola bisselliella) and one piece of wool muslin cloth (2 cm×2 cm in size) were hung down at the upper part of the box. The box was closed with a lid. After one week, the box was opened, and the percent moribund and the degree of damage of the wool muslin cloth by the moths were examined. The same tests was repeated 2 weeks, 3 weeks and 5 weeks after the treatment to examine the persistance of the present compound. The degree of damage was represented by "-" in no damage, "+" in slight damage, "++" in heavy damage and "+++" in severe damage.

Data set [11] can be described thus: Toxicity Test: acute oral LD50. To be noted: rat, in vivo, corn oil, fasted male 7-week old rats, after 7 days. As for the experimental part: After subjecting the rats to a twenty-hour fasting, 0.1 ml of the diluted solution per 10 g weight was forcibly applied into the stomach of four male 7-week old rats. The rats were given food and water four hours after the application and thereafter regularly fed and watered, and kept in a cage. After 7 days, the mortality was examined for the rats and LD50 was calculated.

As usually defined, the mortality is the percentage killed. Usually LD50 stands for the dose at which mortality reaches 50%. Read a low LD50 as a more toxic substance.

In the case of `Cc1ccc(COC(=O)[C@@H]2[C@H](/C=C(\Cl)C(F)(F)F)C2(C)C)o1` (relative stereo) [Compound (1), 5-methyl-2-furfuryl (1RS,cis)-3-(Z-2-chloro-3,3,3-trifluoroprop-1-enyl)-2,2-dimethylcyclopropanecarboxylate], the results for the mortality at 500 ppm in data set [1], in data set [3] and in data set [4] were not below 90%, 100% and 100%, respectively. In [2], the mortality at 50 ppm was found to be 100%. In addition, the mortality at 3.5 ppm in data set [5] is not below 90%. The results for the “rate of knocked-down mosquitoes” value in data set [6] and in data set [7] were not below 90% and 100%, respectively. This compound came in with a mortality at 500 µg/mL in data set [8] of 100%. The “degree of damage of the wool muslin fabric” value in data set [9] is “no damage”. Besides, the mortality in data set [9] (10080 min) came to 100%. The degree of damage entry in data set [10] (After 1 week), in data set [10] (After 2 weeks), in data set [10] (After 3 weeks) and in [10] (After 5 weeks) was “-” in each case. The LD50 at 168 h in [11] was found to be 300 mg/kg.
